Data from patent US20120251511A1, “COMPOSITION AND PRODUCTS FOR ENABLING THE PRODUCTION OF EQUOL IN VIVO” (priority 2011, published 2012).

Key:
[1] = HPLC/EC determination of daidzein and equol levels in blood serum and urine after the BLDG formula; details: for concentration at 1 day / concentration at 7 day / concentration at 21 day: human, oral; for concentration at 1 day: Day 1, plasma; for concentration at 7 day: Day 7, plasma
Procedure: The subject's diet was limited to 20 grams of saturated fat per day. The subject also consumed a healthy amount of grains, fruits and vegetables.
Blood serum and urine samples were taken on days 1, 7 and 21 and the samples were sent to an independent laboratory for analysis.
Equol in the blood serum was tested (untreated) as unbound to sex hormone-binding globulin (SHBG).

[2] = test system: androgenic alopecia (hair loss); experiment: Observed effects on androgenic alopecia (hair loss); type: in vivo, human; details: inulin supplements 4 grams daily, one individual
Source text: The goal of the first experiment, performed in June 2006, was to investigate the ability for the BLDG formula to show both objective and subjective results. Objective results included blood and urine samples testing for the presence of equol. Subjective results included the documentation of observed effects on androgenic alopecia (hair loss) and acne vulgaris.
The test subject was a person, in good overall health. Subject was physically active, had adequate nutrition and was not taking any drugs or supplements that were known to cause hair loss or acne.
The subject was experiencing a high degree of shedding of the hair from areas of the scalp consistent with male pattern baldness. Miniaturization of the hair follicles on the scalp was noticeable along the hair line, part line and vertex upon close observation. […] Generally, the subject would have been considered a Class II on the Norwood-Hamilton scale, but with some increased vertex thinning more attributable to a Class III.

[3] = in vitro; cited from earlier work
[4] = Day 21, urine, BLDG formula regimen equivalent to Example 1
[5] = plasma, unbound equol, Mean, BLDG formula regimen equivalent to Example 1
[6] = plasma, unbound equol, ng/ml I, BLDG formula regimen equivalent to Example 1
[7] = plasma, unbound equol, ng/ml II, BLDG formula regimen equivalent to Example 1

**Q.** For `O=c1c(-c2ccc(O)cc2)coc2cc(O)ccc12` [Daidzein, 4,7-Dihydroxyisoflavone], which “daidzein, Mean” value [1, 4] is on record?
**A.** Its value is 43974.11 ng/mL.

**Q.** What about the “daidzein, ng/ml I” value [1, 4] of the same compound?
**A.** Its value is 44246.59 ng/mL.

**Q.** What about the “daidzein, ng/ml II” value [1, 4] of the same compound?
**A.** The value was 43701.63 ng/mL.

**Q.** What about the “increase in daidzein levels between Day 7 and Day 21” value ([1]; blood serum, BLDG formula) of the same compound?
**A.** Its value is 45%.

**Q.** Which “effect of added inulin on BLDG dosage needed” value [2] does the source give for inulin here?
**A.** Its value is “able to cut his BLDG dosage in half”.

**Q.** For `Oc1ccc([C@H]2COc3cc(O)ccc3C2)cc1` [S-equol], which “blood levels that may be required to fully mitigate DHT at normal levels of circulation in men” value [3] is on record?
**A.** Its value is 100 ng/mL.

**Q.** And the “increase in equol concentration between Day 7 and Day 21” value ([1]; blood serum, BLDG formula)?
**A.** The value was 3%.

**Q.** What about the concentration at 1 day [1, 5] of the same compound?
**A.** Its concentration at 1 day is 0 ng/mL.

**Q.** What about the concentration at 7 day [1, 5] of the same compound?
**A.** Its concentration at 7 day is 127 ng/mL.

**Q.** And the concentration at 21 day ([1]; plasma, unbound equol, Mean, Day 21, plasma, BLDG formula regimen equivalent to Example 1)?
**A.** Its concentration at 21 day is 131 ng/mL.

**Q.** What about the concentration at 1 day [1, 6] of the same compound?
**A.** The concentration at 1 day was 0 ng/mL.

**Q.** What about the concentration at 7 day [1, 6] of the same compound?
**A.** The concentration at 7 day was 137 ng/mL.

**Q.** What about the concentration at 21 day ([1]; plasma, unbound equol, ng/ml I, Day 21, plasma, BLDG formula regimen equivalent to Example 1) of the same compound?
**A.** The concentration at 21 day was 122 ng/mL.

**Q.** What about the concentration at 1 day [1, 7] of the same compound?
**A.** The concentration at 1 day was 0 ng/mL.

**Q.** What about the concentration at 7 day [1, 7] of the same compound?
**A.** The concentration at 7 day was 117 ng/mL.

**Q.** What about the concentration at 21 day ([1]; plasma, unbound equol, ng/ml II, Day 21, plasma, BLDG formula regimen equivalent to Example 1) of the same compound?
**A.** Its concentration at 21 day is 141 ng/mL.

**Q.** What about the concentration at 21 day ([1]; urine, equol, Mean, Day 21, urine, BLDG formula regimen equivalent to Example 1) of the same compound?
**A.** Its concentration at 21 day is 638 ng/mL.

**Q.** And the concentration at 21 day ([1]; urine, equol, ng/ml I, Day 21, urine, BLDG formula regimen equivalent to Example 1)?
**A.** Its concentration at 21 day is 613 ng/mL.

**Q.** What about the concentration at 21 day ([1]; urine, equol, ng/ml II, Day 21, urine, BLDG formula regimen equivalent to Example 1) of the same compound?
**A.** The concentration at 21 day was 662 ng/mL.
